Three compounds from paper PMC3252867, “Marilones A–C, phthalides from the sponge-derived fungus Stachylidium sp” (Beilstein Journal of Organic Chemistry, 2011) can be followed below.

Among the test systems are MCF7; SF268; NCI-H460.
What all share (test): cells
Common to all, as to parameters: antiproliferative activity in human cancer cell lines, growth inhibition corrected for starting population (GI50)
Common to all, as to details: Homo sapiens

Where two headings read alike, the source gives them in different places.

On to `COc1c(C)c(OC/C=C(\C)CCC=C(C)C)cc2c1COC2=O` [compound 3, Marilone C], for which the GI50 in the experiment with MCF7 (MCF7, read-out: GI50 (3)) stood at 20 µM; in the experiment with SF268 (SF-268, read-out: GI50 (3)), 28.9 µM; in the experiment with NCI-H460 (NCI-H460, read-out: GI50 (3)), 31 µM.
`COc1cc([C@@H]2c3cc4c(cc3[C@@H](O[C@@H]3O[C@@H]5CO[C@@H](C)O[C@H]5[C@H](O)[C@H]3O)[C@H]3COC(=O)[C@H]23)OCO4)cc(OC)c1O` [Etoposide]: the 50% growth inhibitory concentration (GI50) in the experiment with MCF7 (MCF7, read-out: GI50 Etoposide) turned out to be 22.8 µM; in the experiment with SF268 (SF-268, read-out: GI50 Etoposide) it was 7.7 µM; in the experiment with NCI-H460 (NCI-H460, read-out: GI50 Etoposide) it was 0.4 µM.
Consider `COc1c(C)c(OC/C=C(\C)CCC=C(C)C)cc2c1C(=O)O[C@H]2C` (racemic) [compound 1, Marilone A], for which the GI50 in the experiment with MCF7 (MCF7, read-out: GI50 (1)) worked out at 28.8 µM; in the experiment with SF268 (SF-268, read-out: GI50 (1)) it was 38.4 µM; with NCI-H460 (NCI-H460, read-out: GI50 (1)), 42.9 µM.
